# PubChem BioAssay (NCI)
#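 Grown in 96-well plates, cells were treated for 48 hours with each compound at five concentrations. Insufficient inhibition: endpoint recorded as highest concentration tested. GI50 is the concentration that inhibits growth by half. TGI denotes the concentration required for complete inhibition of growth.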
# Legend:
# Experiment in all cases: DTP human tumour cell line panel, 48 h
# 786-0 renal = test system: 786-0 renal
# A498 renal = test system: A498 renal
# A549 NSCLC = test system: A549 NSCLC
# ACHN renal = test system: ACHN renal
# BT-549 breast = test system: BT-549 breast
# CAKI-1 renal = test system: CAKI-1 renal
# CCRF-CEM leukemia = test system: CCRF-CEM leukemia
# COLO 205 colon = test system: COLO 205 colon
# DU-145 prostate = test system: DU-145 prostate
# EKVX NSCLC = test system: EKVX NSCLC
# HCC-2998 colon = test system: HCC-2998 colon
# HCT-116 colon = test system: HCT-116 colon
# HCT-15 colon = test system: HCT-15 colon
# HL-60(TB) leukemia = test system: HL-60(TB) leukemia
# HOP-62 NSCLC = test system: HOP-62 NSCLC
# HOP-92 NSCLC = test system: HOP-92 NSCLC
# HS 578T breast = test system: HS 578T breast
# HT29 colon = test system: HT29 colon
# IGROV1 ovarian = test system: IGROV1 ovarian
# K-562 leukemia = test system: K-562 leukemia
# KM12 colon = test system: KM12 colon
# LOX IMVI melanoma = test system: LOX IMVI melanoma
# M14 melanoma = test system: M14 melanoma
# MALME-3M melanoma = test system: MALME-3M melanoma
# MCF7 breast = test system: MCF7 breast
# MDA-MB-231 breast = test system: MDA-MB-231 breast
# MDA-MB-435 = test system: MDA-MB-435
# MOLT-4 leukemia = test system: MOLT-4 leukemia
smiles,measurement,setting,value
CC[C@H](Nc1nc(NCc2cnc(C)cc2C)c2ncn(C(C)C)c2n1)[C@@H](C)O,GI50,786-0 renal,361 nM
same,TGI,786-0 renal,> 100 µM
same,GI50,A498 renal,167 nM
same,TGI,A498 renal,391 nM
same,GI50,A549 NSCLC,353 nM
same,TGI,A549 NSCLC,> 100 µM
same,GI50,ACHN renal,327 nM
same,TGI,ACHN renal,> 100 µM
same,GI50,BT-549 breast,226 nM
same,TGI,BT-549 breast,800 nM
same,GI50,CAKI-1 renal,269 nM
same,TGI,CAKI-1 renal,> 100 µM
same,GI50,CCRF-CEM leukemia,326 nM
same,TGI,CCRF-CEM leukemia,> 100 µM
same,GI50,COLO 205 colon,247 nM
same,TGI,COLO 205 colon,640 nM
same,GI50,DU-145 prostate,387 nM
same,TGI,DU-145 prostate,> 100 µM
same,GI50,EKVX NSCLC,319 nM
same,TGI,EKVX NSCLC,2020 nM
same,GI50,HCC-2998 colon,291 nM
same,TGI,HCC-2998 colon,2000 nM
same,GI50,HCT-116 colon,314 nM
same,TGI,HCT-116 colon,> 100 µM
same,GI50,HCT-15 colon,349 nM
same,TGI,HCT-15 colon,4.89 µM
same,GI50,HL-60(TB) leukemia,270 nM
same,TGI,HL-60(TB) leukemia,744 nM
same,GI50,HOP-62 NSCLC,356 nM
same,TGI,HOP-62 NSCLC,> 59.7 µM
same,GI50,HOP-92 NSCLC,279 nM
same,TGI,HOP-92 NSCLC,2270 nM
same,GI50,HS 578T breast,281 nM
same,TGI,HS 578T breast,956 nM
same,GI50,HT29 colon,331 nM
same,TGI,HT29 colon,> 100 µM
same,GI50,IGROV1 ovarian,347 nM
same,TGI,IGROV1 ovarian,> 100 µM
same,GI50,K-562 leukemia,480 nM
same,TGI,K-562 leukemia,> 100 µM
same,GI50,KM12 colon,312 nM
same,TGI,KM12 colon,12.2 µM
same,GI50,LOX IMVI melanoma,252 nM
same,TGI,LOX IMVI melanoma,> 67.5 µM
same,GI50,M14 melanoma,318 nM
same,TGI,M14 melanoma,4.31 µM
same,GI50,MALME-3M melanoma,1180 nM
same,TGI,MALME-3M melanoma,4.22 µM
same,GI50,MCF7 breast,284 nM
same,TGI,MCF7 breast,7.23 µM
same,GI50,MDA-MB-231 breast,313 nM
same,TGI,MDA-MB-231 breast,> 100 µM
same,GI50,MDA-MB-435,362 nM
same,TGI,MDA-MB-435,10.8 µM
same,GI50,MOLT-4 leukemia,339 nM
same,TGI,MOLT-4 leukemia,> 100 µM
